# Legend:
# [1] = biological target: Sodium-dependent serotonin transporter (Rattus norvegicus, UniProt P31652); assay: Binding affinity towards Serotonin transporter from rat cortex measured using [3H]paroxetine
# Mus musculus [2] = assay: Antidepressant-like activity in the forced swimming test (FST) in mice at 1 mg/kg dose; type: functional
# [3] = biological target: T1, 5-hydroxytryptamine receptor 1A (Rattus norvegicus, UniProt P19327); assay: Binding affinity to 5-hydroxytryptamine 1A receptor (5-HT 1A receptor, serotonin receptor) from rat cortex using [3H]8-OH-DPAT as radioligand
# T1 sequence (P19327 whole entry): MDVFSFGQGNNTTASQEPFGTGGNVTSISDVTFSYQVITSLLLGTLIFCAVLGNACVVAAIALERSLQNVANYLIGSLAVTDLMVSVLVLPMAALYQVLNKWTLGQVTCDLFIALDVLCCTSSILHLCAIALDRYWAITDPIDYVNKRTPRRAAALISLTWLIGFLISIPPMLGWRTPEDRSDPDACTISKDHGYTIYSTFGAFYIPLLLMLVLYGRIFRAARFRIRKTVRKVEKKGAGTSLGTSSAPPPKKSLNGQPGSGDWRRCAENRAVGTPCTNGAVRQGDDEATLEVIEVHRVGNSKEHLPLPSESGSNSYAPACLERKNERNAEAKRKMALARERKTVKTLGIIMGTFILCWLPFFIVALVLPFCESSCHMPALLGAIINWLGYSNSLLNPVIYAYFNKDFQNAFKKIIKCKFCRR
# Mus musculus [4] = assay: Time-dependent effect on 8-OH-DPAT-induced hypothermia (change in body temperature) after 30 min, in mice at 0.5 mg/kg dose; type: functional
# Mus musculus [5] = assay: Time-dependent effect on 8-OH-DPAT-induced hypothermia (change in body temperature) after 60 min, in mice at 0.5 mg/kg dose; type: functional
# Mus musculus [6] = assay: Effect on immobility time in the forced swimming test (FST) in mice at 10 mg/kg dose; type: functional
# Mus musculus [7] = assay: Time-dependent effect on 8-OH-DPAT-induced hypothermia (change in body temperature) after 15 min, in mice at 5 mg/kg dose; type: functional
# Mus musculus [8] = assay: Antidepressant-like activity in the forced swimming test (FST) in mice at 10 mg/kg dose; type: functional
# Mus musculus [9] = assay: Effect on immobility time in the forced swimming test (FST) in mice at 0.1 mg/kg dose; type: functional
# Mus musculus [10] = assay: Effect on immobility time in the forced swimming test (FST) in mice at 1 mg/kg dose; type: functional
# Mus musculus [11] = assay: Time-dependent effect on 8-OH-DPAT-induced hypothermia (change in body temperature) after 30 min, in mice at 5 mg/kg dose; type: functional
# Mus musculus [12] = assay: Effect on immobility time in the forced swimming test (FST) in mice at 0 mg/kg dose; type: functional
# Mus musculus [13] = assay: Antidepressant-like activity in the forced swimming test (FST) in mice at 0.1 mg/kg dose; type: functional
# Mus musculus [14] = assay: Time-dependent effect on 8-OH-DPAT-induced hypothermia (change in body temperature) after 60 min, in mice at 5 mg/kg dose; type: functional
# Mus musculus [15] = assay: Time-dependent effect on 8-OH-DPAT-induced hypothermia (change in body temperature) after 15 min, in mice at 0.5 mg/kg dose; type: functional
# Mus musculus [16] = assay: Antidepressant-like activity in the forced swimming test (FST) in mice at 1 mg/kg dose; Antidepressant like activity; type: functional
# Mus musculus [17] = assay: Antidepressant-like activity in the forced swimming test (FST) in mice at 0.1 mg/kg dose; Antidepressant like activity; type: functional
# Mus musculus [18] = assay: Antidepressant-like activity in the forced swimming test (FST) in mice at 10 mg/kg dose; Antidepressant like activity; type: functional
# Rattus norvegicus [19] = assay: Effect on helpless behavior in rats and the number of escape failures was determined in shuttle-box session-3 (SB-3) at 10 mg/kg dose; type: functional
# Rattus norvegicus [20] = assay: Effect on helpless behavior in rats and the number of escape failures was determined in shuttle-box session-2 (SB-2) at 10 mg/kg dose; type: functional
# Rattus norvegicus [21] = assay: Effect on helpless behavior in rats and the number of escape failures was determined in shuttle-box session-1 (SB-1) at 10 mg/kg dose; type: functional
# Mus musculus [22] = assay: Effect on immobility time in the forced swimming test (FST) in mice at 0.01 mg/kg dose; type: functional
# Mus musculus [23] = assay: Antidepressant-like activity in the forced swimming test (FST) in mice at 0.01 mg/kg dose; Antidepressant like activity; type: functional
# Rattus norvegicus [24] = assay: Effect on helpless behavior in rats and the number of escape failures was determined in shuttle-box session-1 (SB-1) at 1 mg/kg dose; type: functional
# Rattus norvegicus [25] = assay: Effect on helpless behavior in rats and the number of escape failures was determined in shuttle-box session-3 (SB-3) at 1 mg/kg dose; type: functional
# Rattus norvegicus [26] = assay: Effect on helpless behavior in rats and the number of escape failures was determined in shuttle-box session-2 (SB-2) at 1 mg/kg dose; type: functional
# [27] = biological target: T2, 5-hydroxytryptamine receptor 1A (Homo sapiens) (UniProt P08908); assay: Percent increase in the Forskolin-Stimulated cAMP formation, in HeLa cells transfected with the 5-HT 1A receptor [compound (1 uM)]; type: functional, cell-based
# T2 sequence (whole entry): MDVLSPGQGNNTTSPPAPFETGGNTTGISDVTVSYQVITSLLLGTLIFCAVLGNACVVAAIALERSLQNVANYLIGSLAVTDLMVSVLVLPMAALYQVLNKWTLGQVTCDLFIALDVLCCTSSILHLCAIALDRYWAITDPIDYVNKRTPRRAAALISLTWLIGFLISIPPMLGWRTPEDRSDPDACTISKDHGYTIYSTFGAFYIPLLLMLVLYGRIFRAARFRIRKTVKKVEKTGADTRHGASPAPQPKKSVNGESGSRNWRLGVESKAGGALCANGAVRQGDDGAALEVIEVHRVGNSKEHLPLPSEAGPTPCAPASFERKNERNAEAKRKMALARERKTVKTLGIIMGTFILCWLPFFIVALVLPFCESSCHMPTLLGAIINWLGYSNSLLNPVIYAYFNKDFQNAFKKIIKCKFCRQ
# [28] = biological target: T2, 5-hydroxytryptamine receptor 1A (Homo sapiens); assay: Percent increase in the Forskolin-Stimulated cAMP formation, in HeLa cells transfected with the 5-HT 1A receptor at 1 uM concentration; type: functional, cell-based
# [29] = biological target: T2, 5-hydroxytryptamine receptor 1A (Homo sapiens); conditions: HeLa
# Description: Effect on Forskolin-Stimulated cAMP formation, in HeLa cells transfected with the 5-HT 1A receptor at 1 uM concentration
# [30] = biological target: T2, 5-hydroxytryptamine receptor 1A (Homo sapiens); conditions: HeLa; remark: listed apart in the source
# Description: Effect (1 uM) on Forskolin-Stimulated cAMP formation, in HeLa cells transfected with the 5-HT 1A receptor
# Mus musculus [31] = assay: Effect on immobility time in the forced swimming test (FST) in mice at mg/kg dose; type: functional
# [32] = biological target: T2, 5-hydroxytryptamine receptor 1A (Homo sapiens); assay: Percent increase in the Forskolin-Stimulated cAMP formation, in HeLa cells transfected with the 5-HT 1A receptor at 10 uM concentration; type: functional, cell-based
# [33] = biological target: T2, 5-hydroxytryptamine receptor 1A (Homo sapiens); assay: Effect on Forskolin-Stimulated cAMP formation, in HeLa cells transfected with the 5-HT 1A receptor at 10 uM concentration; type: functional, cell-based
# Rattus norvegicus [34] = assay: Effect on helpless behavior in rats and the number of escape failures was determined in shuttle-box session-3 (SB-3) at 30 mg/kg dose; type: functional
# Rattus norvegicus [35] = assay: Effect on helpless behavior in rats and the number of escape failures was determined in shuttle-box session-2 (SB-2) at 30 mg/kg dose; type: functional
# Rattus norvegicus [36] = assay: Effect on helpless behavior in rats and the number of escape failures was determined in shuttle-box session-1 (SB-1) at 30 mg/kg dose; type: functional
# Mus musculus [37] = assay: Time-dependent effect on 8-OH-DPAT-induced hypothermia (change in body temperature) after 15 min, in mice at 1 mg/kg dose; type: functional
# Mus musculus [38] = assay: Time-dependent effect on 8-OH-DPAT-induced hypothermia (change in body temperature) after 60 min, in mice at 1 mg/kg dose; type: functional
# Mus musculus [39] = assay: Time-dependent effect on 8-OH-DPAT-induced hypothermia (change in body temperature) after 30 min, in mice at 1 mg/kg dose; type: functional
# Sodium-dependent serotonin transporter, sequence (P31652 whole entry): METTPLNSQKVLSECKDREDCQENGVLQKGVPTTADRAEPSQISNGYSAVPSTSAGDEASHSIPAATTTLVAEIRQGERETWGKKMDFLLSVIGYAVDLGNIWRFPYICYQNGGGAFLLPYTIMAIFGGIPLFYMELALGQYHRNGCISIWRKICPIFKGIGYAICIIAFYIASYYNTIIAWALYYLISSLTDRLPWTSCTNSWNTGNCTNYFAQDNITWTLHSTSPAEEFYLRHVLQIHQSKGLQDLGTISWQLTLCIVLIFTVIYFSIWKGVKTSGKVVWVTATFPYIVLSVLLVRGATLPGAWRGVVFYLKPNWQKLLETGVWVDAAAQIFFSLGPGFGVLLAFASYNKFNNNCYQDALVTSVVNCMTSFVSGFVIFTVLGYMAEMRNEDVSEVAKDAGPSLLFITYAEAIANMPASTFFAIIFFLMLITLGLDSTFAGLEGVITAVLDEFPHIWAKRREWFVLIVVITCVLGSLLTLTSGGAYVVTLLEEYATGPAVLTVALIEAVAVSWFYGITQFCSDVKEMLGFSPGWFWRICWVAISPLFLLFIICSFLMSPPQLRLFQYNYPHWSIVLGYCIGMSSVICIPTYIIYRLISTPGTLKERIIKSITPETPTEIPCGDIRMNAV
SMILES,Ki ([1]; read-out: Ki),Ki ([3]; read-out: Ki),Temperature change (Mus musculus [4]),Temperature change (Mus musculus [5]),Immobility time (Mus musculus [6]),Temperature change (Mus musculus [7]),Immobility time (Mus musculus [9]),Immobility time (Mus musculus [10]),Temperature change (Mus musculus [11]),Immobility time (Mus musculus [12]),Temperature change (Mus musculus [14]),Temperature change (Mus musculus [15]),Activity (Mus musculus [16]),Activity (Mus musculus [17]),Activity (Mus musculus [18]),other results
COc1ccccc1N1CCN(CCC(=O)c2ccsc2)CC1,0.112 µM,0.016 µM,-2.04 °C,-1.48 °C,<44.9 s,-2.76 °C,169.5 s,<118.8 s,-2.18 °C,170.1 s,-1.88 °C,-2.52 °C,–,–,–,Activity (Mus musculus [2]): 34%; Activity (Mus musculus [8]): 83%; Activity (Mus musculus [13]): 0%
Oc1ccccc1N1CCN(CCC(O)c2ccc3ccccc3c2)CC1 (stereo unspecified),–,–,-2.03 °C,-1.12 °C,24.4 s,-1.97 °C,–,178.3 s,-2.41 °C,–,-0.93 °C,-2.52 °C,0%,0%,93%,Ki [1]: 0.19 µM; Ki [3]: 0.19 µM
COc1ccccc1N1CCN(CCC(O)c2cc(C)sc2C)CC1 (stereo unspecified),0.115 µM,–,-2.13 °C,-1.21 °C,103 s,-2.01 °C,–,111 s,-1.86 °C,124.3 s,-1.26 °C,-2.53 °C,–,–,–,Activity (Mus musculus [2]): 13%; Ki [3]: 0.012 µM; Activity (Mus musculus [8]): 20%
CN(C)CCC=C1c2ccccc2CCc2ccccc21 [AMITRIPTYLINE],–,–,–,–,–,–,–,–,–,–,–,–,–,–,–,No. of escape failures (Rattus norvegicus [19]): <1.2; No. of escape failures (Rattus norvegicus [20]): <3.3; No. of escape failures (Rattus norvegicus [21]): <9
Oc1ccccc1N1CCN(CCC(O)c2csc3ccccc23)CC1 (stereo unspecified),0.039 µM,0.018 µM,-2.01 °C,-1.38 °C,160.9 s,-3.17 °C,<112.5 s,183.3 s,-2.2 °C,178 s,-1.32 °C,-2.54 °C,0%,40%,11%,Immobility time (Mus musculus [22]): 186.1 s; Activity (Mus musculus [23]): 0%
Fc1ccc([C@@H]2CCNC[C@H]2COc2ccc3c(c2)OCO3)cc1 [PAROXETINE],–,–,–,–,–,–,–,–,–,–,–,–,–,–,–,No. of escape failures (Rattus norvegicus [24]): 3.3; No. of escape failures (Rattus norvegicus [25]): 2.2; No. of escape failures (Rattus norvegicus [26]): 3
COc1ccccc1N1CCN(CC/C(=N\O)c2ccc(C)s2)CC1,0.065 µM,0.13 µM,-2.05 °C,-1.11 °C,126.2 s,-1.41 °C,151.6 s,<79.2 s,-1.31 °C,142.7 s,-0.94 °C,-2.12 °C,51%,0%,13%,cAMP increase [27]: 33%; cAMP increase [28]: 25%; cAMP [29]: 7.4 pmol/well; cAMP [30]: 9.8 pmol/well
COc1ccccc1N1CCN(CC/C(=N\O)c2csc3ccccc23)CC1,0.095 µM,0.06 µM,-2.18 °C,-1.7 °C,<102 s,-2.77 °C,181.1 s,–,-2.99 °C,188.1 s,-1.31 °C,-2.16 °C,22%,0%,50%,Immobility time (Mus musculus [31]): 150.1 s
C=C[C@@]1(C)CC(=O)[C@]2(O)[C@@]3(C)[C@@H](O)CCC(C)(C)[C@@H]3[C@H](O)[C@H](OC(C)=O)[C@@]2(C)O1,–,–,–,–,–,–,–,–,–,–,–,–,–,–,–,Activity [32]: 100%; cAMP [33]: 29.7 pmol/well
CNCCC(Oc1ccc(C(F)(F)F)cc1)c1ccccc1 (stereo unspecified) [FLUOXETINE],–,–,–,–,–,–,–,–,–,–,–,–,–,–,–,No. of escape failures (Rattus norvegicus [34]): <3.2; No. of escape failures (Rattus norvegicus [35]): <4; No. of escape failures (Rattus norvegicus [36]): 13
"COc1ccccc1N1CCN(CCN(C(=O)C2CCCCC2)c2ccccn2)CC1 [WAY-100,635]",–,–,–,–,–,–,–,–,–,–,–,–,–,–,–,Temperature change (Mus musculus [37]): <-0.71 °C; Temperature change (Mus musculus [38]): -0.35 °C; Temperature change (Mus musculus [39]): <-0.95 °C

# — ChEMBL document CHEMBL1134339, “New 1-aryl-3-(4-arylpiperazin-1-yl)propane derivatives, with dual action at 5-HT1A serotonin receptors and serotonin transporter, as a new class of antidepressants” (J Med Chem, 2001)
